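GI50 marks 50% less growth. TGI: total growth inhibition.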
Columns and labels:
Assay in all cases: NCI tumour cell line growth inhibition, 384-well format
NCI/ADR-RES ovarian = test system: NCI/ADR-RES ovarian
SF-295 CNS = test system: SF-295 CNS
RPMI-8226 leukemia = test system: RPMI-8226 leukemia
NCI-H322M lung = test system: NCI-H322M lung
SK-MEL-5 melanoma = test system: SK-MEL-5 melanoma
BT-549 breast = test system: BT-549 breast
SF-268 CNS = test system: SF-268 CNS
M14 melanoma = test system: M14 melanoma
UACC-62 melanoma = test system: UACC-62 melanoma
NCI-H522 lung = test system: NCI-H522 lung
PC-3 prostate = test system: PC-3 prostate
MDA-MB-435 melanoma = test system: MDA-MB-435 melanoma
CAKI-1 renal = test system: CAKI-1 renal
EKVX NSCLC = test system: EKVX NSCLC
HL-60(TB) leukemia = test system: HL-60(TB) leukemia
HCC-2998 colon = test system: HCC-2998 colon
DU-145 prostate = test system: DU-145 prostate
MALME-3M melanoma = test system: MALME-3M melanoma
COLO 205 colon = test system: COLO 205 colon
786-0 renal = test system: 786-0 renal
U251 glioblastoma = test system: U251 glioblastoma
OVCAR-5 ovarian = test system: OVCAR-5 ovarian
HT29 colon = test system: HT29 colon
NCI-H460 NSCLC = test system: NCI-H460 NSCLC
TK-10 renal = test system: TK-10 renal
HOP-62 NSCLC = test system: HOP-62 NSCLC
A498 renal = test system: A498 renal
RXF 393 renal = test system: RXF 393 renal
OVCAR-3 ovarian = test system: OVCAR-3 ovarian
NCI-H23 lung = test system: NCI-H23 lung
HCT-15 colon = test system: HCT-15 colon
OVCAR-8 ovarian = test system: OVCAR-8 ovarian
UACC-257 melanoma = test system: UACC-257 melanoma
A549 NSCLC = test system: A549 NSCLC
SR leukemia = test system: SR leukemia
SW-620 colon = test system: SW-620 colon
KM12 colon = test system: KM12 colon
HOP-92 NSCLC = test system: HOP-92 NSCLC
OVCAR-4 ovarian = test system: OVCAR-4 ovarian
SN12C renal = test system: SN12C renal
CCRF-CEM leukemia = test system: CCRF-CEM leukemia
SF-539 CNS = test system: SF-539 CNS
SNB-75 CNS = test system: SNB-75 CNS
SNB-19 CNS = test system: SNB-19 CNS
IGROV1 ovarian = test system: IGROV1 ovarian
MCF7 breast = test system: MCF7 breast
SK-MEL-28 melanoma = test system: SK-MEL-28 melanoma
SK-OV-3 ovarian = test system: SK-OV-3 ovarian
T-47D breast = test system: T-47D breast
NCI-H226 lung = test system: NCI-H226 lung
MOLT-4 leukemia = test system: MOLT-4 leukemia
HS 578T breast = test system: HS 578T breast
ACHN renal = test system: ACHN renal
MDA-MB-231 breast = test system: MDA-MB-231 breast
MDA-MB-468 breast = test system: MDA-MB-468 breast
SK-MEL-2 melanoma = test system: SK-MEL-2 melanoma

## C=C1C(=O)OC(CCCCCCCC)C1C(=O)O (configuration not stated)
NCI/ADR-RES ovarian
  GI50: 22.3 µM
  TGI: 46.2 µM
SF-295 CNS
  GI50: 23.5 µM
  TGI: 57.5 µM
RPMI-8226 leukemia
  GI50: 10.3 µM
  TGI: 22.1 µM
NCI-H322M lung
  GI50: 24.3 µM
  TGI: 50.3 µM
SK-MEL-5 melanoma
  GI50: 18.3 µM
  TGI: 32.5 µM
BT-549 breast
  GI50: 14.8 µM
  TGI: 38.3 µM
SF-268 CNS
  GI50: 19 µM
  TGI: 37 µM
M14 melanoma
  GI50: 17.8 µM
  TGI: 34.5 µM
UACC-62 melanoma
  GI50: 33.9 µM
  TGI: > 100 µM
NCI-H522 lung
  GI50: 6.51 µM
  TGI: 19.2 µM
PC-3 prostate
  GI50: 21 µM
  TGI: 39.1 µM
MDA-MB-435 melanoma
  GI50: 23.3 µM
  TGI: 44 µM
CAKI-1 renal
  GI50: 16.5 µM
  TGI: 30.7 µM
EKVX NSCLC
  GI50: 20.4 µM
  TGI: 37.7 µM
HL-60(TB) leukemia
  GI50: 13.5 µM
  TGI: 26.4 µM
HCC-2998 colon
  GI50: 20.6 µM
  TGI: 35.2 µM
DU-145 prostate
  GI50: 17.4 µM
  TGI: 31.5 µM
MALME-3M melanoma
  GI50: 15.5 µM
  TGI: 29.2 µM
COLO 205 colon
  GI50: 25.5 µM
  TGI: 40.4 µM
786-0 renal
  GI50: 16.7 µM
  TGI: 31.6 µM
U251 glioblastoma
  GI50: 20.6 µM
  TGI: 37.9 µM
OVCAR-5 ovarian
  GI50: 39.3 µM
  TGI: > 100 µM
HT29 colon
  GI50: 23.4 µM
  TGI: 49.4 µM
NCI-H460 NSCLC
  GI50: 17.1 µM
  TGI: 31.3 µM
TK-10 renal
  GI50: 34.3 µM
  TGI: > 100 µM
HOP-62 NSCLC
  GI50: 12.9 µM
  TGI: 28.6 µM
A498 renal
  GI50: 22.1 µM
  TGI: 45.5 µM
RXF 393 renal
  GI50: 11.5 µM
  TGI: 24.1 µM
OVCAR-3 ovarian
  GI50: 12.8 µM
  TGI: 26.2 µM
NCI-H23 lung
  GI50: 14 µM
  TGI: 27.6 µM
HCT-15 colon
  GI50: 19.4 µM
  TGI: 37.1 µM
OVCAR-8 ovarian
  GI50: 24.9 µM
  TGI: 54.9 µM
UACC-257 melanoma
  GI50: 12.7 µM
  TGI: 27.3 µM
A549 NSCLC
  GI50: 20.9 µM
  TGI: 41.8 µM
SR leukemia
  GI50: 3.03 µM
  TGI: 9.89 µM
SW-620 colon
  GI50: 18.7 µM
  TGI: 33.2 µM
KM12 colon
  GI50: 14.6 µM
  TGI: 28.2 µM
HOP-92 NSCLC
  GI50: 19.8 µM
  TGI: 41.1 µM
OVCAR-4 ovarian
  GI50: 16.9 µM
  TGI: 32.1 µM
SN12C renal
  GI50: 19 µM
  TGI: 36.1 µM
CCRF-CEM leukemia
  GI50: 12.2 µM
  TGI: 24.8 µM
SF-539 CNS
  GI50: 20.1 µM
  TGI: 34.9 µM
SNB-75 CNS
  GI50: 16.1 µM
  TGI: 32.1 µM
SNB-19 CNS
  GI50: 22.4 µM
  TGI: 47.3 µM
IGROV1 ovarian
  GI50: 19.2 µM
  TGI: 37.4 µM
MCF7 breast
  GI50: 21.1 µM
  TGI: 39.6 µM
SK-MEL-28 melanoma
  GI50: 23.3 µM
  TGI: 46.8 µM
SK-OV-3 ovarian
  GI50: 23.6 µM
  TGI: 45.2 µM
T-47D breast
  GI50: 18.2 µM
  TGI: 32.3 µM
NCI-H226 lung
  GI50: 27.9 µM
  TGI: 49.7 µM
MOLT-4 leukemia
  GI50: 14.6 µM
  TGI: 27.9 µM
HS 578T breast
  GI50: 12.2 µM
  TGI: 25.5 µM
ACHN renal
  GI50: 21.4 µM
  TGI: 39.3 µM
MDA-MB-231 breast
  GI50: 30.3 µM
  TGI: > 100 µM
MDA-MB-468 breast
  GI50: 3.04 µM
  TGI: 6.75 µM
SK-MEL-2 melanoma
  GI50: 28.7 µM
  TGI: 46.6 µM

— PubChem BioAssay (NCI)
